#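 Assay format: 96-well plates, 48-hour exposure. The concentration for 50% growth inhibition is given as GI50.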 Activity calls are given as the source filed them. Cut-off read from the data, not from the text of the source: active = GI50 up to about 1.1 µM and inactive = higher.
# How the values were obtained:
# Assay in all cases: NCI-60 cell line screen, 48 h
# [1] = system: 786-0
# [2] = system: HOP-92
# [3] = system: HT-29
# [4] = system: UACC-257
# [5] = system: COLO 205
# [6] = system: HCT-116
# [7] = system: MCF7
# [8] = system: DU-145
# [9] = system: BT-549
# [10] = system: LOX IMVI
# [11] = system: A498
# [12] = system: NCI-H460
# [13] = system: TK-10
# [14] = system: MDA-N
# [15] = system: K562
# [16] = system: SNB-75
# [17] = system: SK-MEL-5
# [18] = system: SK-MEL-2
# [19] = system: SN12C
# [20] = system: OVCAR-4
Structure (SMILES),GI50 [1],GI50 [2],GI50 [3],GI50 [4],GI50 [5],GI50 [6],GI50 [7],GI50 [8],GI50 [9],GI50 [10],GI50 [11],GI50 [12],GI50 [13],GI50 [14],GI50 [15],GI50 [16],GI50 [17],GI50 [18],GI50 [19],GI50 [20]
CCOC(=O)NC(NNc1ccc([N+](=O)[O-])cc1[N+](=O)[O-])(C(F)(F)F)C(F)(F)F,43.9 µM (inactive),12.7 µM (inactive),32.3 µM (inactive),43.1 µM (inactive),16.1 µM (inactive),32.1 µM (inactive),62.5 µM (inactive),40.3 µM (inactive),25.5 µM (inactive),60.1 µM (inactive),19.7 µM (inactive),27.5 µM (inactive),30.7 µM (inactive),40.7 µM (inactive),25.1 µM (inactive),45.7 µM (inactive),60.8 µM (inactive),47 µM (inactive),27.7 µM (inactive),–
Cc1ccc(C)c(NC(=O)C(=O)C(c2cnc3ccc([N+](=O)[O-])cc3n2)[N+](=O)[O-])c1 (stereo not given),52.8 µM (inactive),36.2 µM (inactive),61.2 µM (inactive),38.6 µM (inactive),60.8 µM (inactive),58.6 µM (inactive),> 100 µM (inactive),77.4 µM (inactive),53.5 µM (inactive),–,33.2 µM (inactive),42.7 µM (inactive),27.3 µM (inactive),70.6 µM (inactive),41.4 µM (inactive),81.7 µM (inactive),48.3 µM (inactive),> 100 µM (inactive),59.7 µM (inactive),17.3 µM (inactive)
COc1ccccc1-c1cc(O)c2cccnc2n1,76 µM (inactive),7.89 µM (inactive),23.4 µM (inactive),37.8 µM (inactive),24.8 µM (inactive),27.5 µM (inactive),6.59 µM (inactive),> 100 µM (inactive),22.2 µM (inactive),33 µM (inactive),54.2 µM (inactive),39.4 µM (inactive),> 100 µM (inactive),20 µM (inactive),30.3 µM (inactive),–,31.4 µM (inactive),36.5 µM (inactive),50.2 µM (inactive),69.5 µM (inactive)
CCC(=O)Nc1ccc(NS(=O)(=O)c2ccc(Cl)cc2)cc1,> 100 µM (inactive),> 100 µM (inactive),> 100 µM (inactive),87.7 µM (inactive),> 100 µM (inactive),> 100 µM (inactive),> 100 µM (inactive),> 100 µM (inactive),> 100 µM (inactive),> 100 µM (inactive),> 100 µM (inactive),> 100 µM (inactive),–,> 100 µM (inactive),29.9 µM (inactive),> 100 µM (inactive),47.6 µM (inactive),> 100 µM (inactive),> 100 µM (inactive),53.6 µM (inactive)
C=CCc1cccc(C(=O)/C=C(O)/C=C/c2ccccc2Cl)c1O,10.4 µM (inactive),25.6 µM (inactive),9.93 µM (inactive),13.8 µM (inactive),25.1 µM (inactive),7.29 µM (inactive),13.2 µM (inactive),15.1 µM (inactive),37.4 µM (inactive),7.01 µM (inactive),21.2 µM (inactive),24.9 µM (inactive),42.7 µM (inactive),27.7 µM (inactive),2.11 µM (inactive),67.3 µM (inactive),7.16 µM (inactive),10.4 µM (inactive),25.6 µM (inactive),–
O=c1[nH]nc(Cc2ccc(Cl)cc2)n1CCO,> 100 µM (inactive),> 100 µM (inactive),> 100 µM (inactive),> 100 µM (inactive),> 100 µM (inactive),> 100 µM (inactive),> 100 µM (inactive),> 100 µM (inactive),> 100 µM (inactive),> 100 µM (inactive),> 100 µM (inactive),> 100 µM (inactive),> 100 µM (inactive),> 100 µM (inactive),> 100 µM (inactive),–,> 100 µM (inactive),> 100 µM (inactive),> 100 µM (inactive),> 100 µM (inactive)
CN1C/C(=C\c2cccs2)C2=NN(C)C(c3cccs3)C2C1 (stereo not given),> 100 µM (inactive),20.5 µM (inactive),61.1 µM (inactive),> 100 µM (inactive),> 100 µM (inactive),51.4 µM (inactive),75.5 µM (inactive),> 100 µM (inactive),> 100 µM (inactive),> 100 µM (inactive),46.7 µM (inactive),86.5 µM (inactive),> 100 µM (inactive),> 100 µM (inactive),29.3 µM (inactive),–,58.3 µM (inactive),24 µM (inactive),95.7 µM (inactive),35.8 µM (inactive)
CCOC(=O)c1ccc(NC2Oc3cc4c(cc3C(c3cc(OC)c(OC)c(OC)c3)C2C)OCO4)cc1 (stereo not given),0.556 µM (active),0.938 µM (active),0.31 µM (active),–,0.236 µM (active),0.465 µM (active),0.402 µM (active),0.48 µM (active),0.474 µM (active),0.61 µM (active),0.566 µM (active),0.445 µM (active),15.6 µM (inactive),0.186 µM (active),0.329 µM (active),0.304 µM (active),0.294 µM (active),0.675 µM (active),1.35 µM (inactive),0.649 µM (active)
CCCNC(=S)N/C=C1/C(=O)Oc2ccccc2C1=O,> 100 µM (inactive),53 µM (inactive),> 100 µM (inactive),> 100 µM (inactive),> 100 µM (inactive),> 100 µM (inactive),> 100 µM (inactive),54.1 µM (inactive),> 100 µM (inactive),> 100 µM (inactive),88.9 µM (inactive),> 100 µM (inactive),> 100 µM (inactive),> 100 µM (inactive),–,33.2 µM (inactive),> 100 µM (inactive),75.3 µM (inactive),> 100 µM (inactive),> 100 µM (inactive)
O=c1[nH]c(=O)c2c([nH]1)[nH]c1ccccc12,> 100 µM (inactive),> 100 µM (inactive),> 100 µM (inactive),> 100 µM (inactive),> 100 µM (inactive),> 100 µM (inactive),> 100 µM (inactive),> 100 µM (inactive),> 100 µM (inactive),> 100 µM (inactive),> 100 µM (inactive),–,> 100 µM (inactive),> 100 µM (inactive),> 100 µM (inactive),> 100 µM (inactive),> 100 µM (inactive),> 100 µM (inactive),> 100 µM (inactive),29.3 µM (inactive)
Cc1ccc2[nH]c3c(c(=O)n(C)c(=O)n3C)c2c1,> 100 µM (inactive),> 100 µM (inactive),> 100 µM (inactive),> 100 µM (inactive),> 100 µM (inactive),> 100 µM (inactive),> 100 µM (inactive),> 100 µM (inactive),> 100 µM (inactive),> 100 µM (inactive),> 100 µM (inactive),–,> 100 µM (inactive),> 100 µM (inactive),> 100 µM (inactive),> 100 µM (inactive),> 100 µM (inactive),> 100 µM (inactive),> 100 µM (inactive),> 100 µM (inactive)
c1ccc(-c2cs[s+]c2)cc1,> 100 µM (inactive),> 100 µM (inactive),> 100 µM (inactive),> 100 µM (inactive),> 100 µM (inactive),> 100 µM (inactive),> 100 µM (inactive),> 100 µM (inactive),> 100 µM (inactive),> 100 µM (inactive),> 100 µM (inactive),31.8 µM (inactive),> 100 µM (inactive),> 100 µM (inactive),34.2 µM (inactive),> 100 µM (inactive),> 100 µM (inactive),–,> 100 µM (inactive),> 100 µM (inactive)
COc1cccc(-n2c(N)c(-c3nc4cc(C(F)(F)F)ccc4s3)c3ccc([N+](=O)[O-])cc3c2=O)c1,> 100 µM (inactive),> 100 µM (inactive),> 100 µM (inactive),> 100 µM (inactive),> 100 µM (inactive),> 100 µM (inactive),> 100 µM (inactive),> 100 µM (inactive),> 100 µM (inactive),–,> 100 µM (inactive),> 100 µM (inactive),> 100 µM (inactive),> 100 µM (inactive),> 100 µM (inactive),> 100 µM (inactive),> 100 µM (inactive),> 100 µM (inactive),> 100 µM (inactive),> 100 µM (inactive)
C=CCSC1=N/C(=C\c2ccco2)C(=O)N1CC=C,> 100 µM (inactive),55.2 µM (inactive),68.4 µM (inactive),77.6 µM (inactive),83.6 µM (inactive),52.1 µM (inactive),16.6 µM (inactive),90.4 µM (inactive),46.1 µM (inactive),69.3 µM (inactive),27.2 µM (inactive),> 100 µM (inactive),> 100 µM (inactive),41.8 µM (inactive),35.2 µM (inactive),–,37.5 µM (inactive),> 100 µM (inactive),> 100 µM (inactive),38 µM (inactive)
COc1cc2cc(C(=O)N3C[C@H](CCl)c4c3cc(O)c3ccccc43)[nH]c2c(OC)c1OC,0.0861 µM (active),0.309 µM (active),0.185 µM (active),–,1.32 µM (inactive),0.147 µM (active),0.0335 µM (active),0.628 µM (active),0.236 µM (active),0.101 µM (active),0.248 µM (active),0.042 µM (active),0.277 µM (active),1.29 µM (inactive),0.25 µM (active),0.184 µM (active),0.0137 µM (active),0.203 µM (active),0.0133 µM (active),0.261 µM (active)

# Source: ChEMBL document CHEMBL1201862, “PubChem BioAssay data set” (2004)
